In patent US8173675B2, “Substituted amino-thiourea compounds for combating animal pests” (BASF SE, priority 2007, dated 2012) one finds melting point and mortality data, which are given here for 8 molecules.

For series [1], the system named is Cotton Aphid (Aphis gossypii). Nature of the series: Cotton aphid (Aphis gossypii) test, infested cotton cotyledons dipped in test solution. The series is classed as in vivo. Particulars: 120 h, determined after 5 days, read-out: mortality of cotton aphid (Aphis gossypii, mixed life stages) in comparison with untreated controls. How it is done:
(§1) The active compounds were formulated in a mixture of 50 vol.-% acetone:50 vol.-% water. A nonionic surfactant (Kinetic®) was included in the solution at a volume of 0.01% v/v.
(§2) In the following tests, the formulated solutions of the active compounds were diluted to an active ingredient concentration of 300 ppm, if not otherwise described, and the diluted solutions were applied in the below mentioned tests.
Cotton plants at the cotyledon stage were infested prior to treatment by placing a heavily infested leaf from the main aphid colony on top of each cotyledon. The aphids were allowed to transfer overnight and the host leaf was removed. The infested cotyledons were then dipped and agitated in the test solution for 3 seconds and allowed to dry in a fume hood. Test plants were maintained under fluorescent lighting in a 24-hr photoperiod at 25° C. and 20-40% relative humidity. Aphid mortality on the treated plants, relative to mortality on untreated check plants, was determined after 5 days.

Series [2] relates to Green Peach Aphid (Myzus persicae). Kind of series: Green peach aphid (Myzus persicae) test, infested bell pepper leaves dipped in test solution. The series is classed as in vivo. Particulars: 120 h, determined after 5 days, read-out: mortality of green peach aphid in comparison with untreated controls. How it is done: as §1, §2
Bell pepper plants at the first true-leaf stage were infested prior to treatment by placing heavily infested leaves from the main aphid colony on top of the treatment plants. The aphids were allowed to transfer overnight to accomplish an infestation of 30-40 aphids per plant and the host leaves were removed. The infested leaves of the test plants were then dipped and agitated in the test solution for 3 seconds and allowed to dry in a fume hood. Test plants were maintained under fluorescent lighting in a 24-hr photoperiod at 25° C. and 20-40% relative humidity. Mortality on the treated plants, relative to mortality on untreated check plants, was determined after 5 days.

Series [3] deals with Cowpea Aphid (aphis craccivora). Kind of series: Cowpea aphid (aphis craccivora) test, colonized potted cowpea plants sprayed. The series is classed as in vivo. Particulars: population reduction recorded after 24, 72, and 120 hours. How it is done: as §2
The active compounds were formulated in 50:50 acetone:water. Potted cowpea plants colonized with 100-150 aphids of various stages were sprayed after the pest population has been recorded. Population reduction was recorded after 24, 72, and 120 hours.

The test system of series [4] is Silverleaf Whitefly (bemisia argentifolii). Nature of the series: Silverleaf whitefly (bemisia argentifolii) test, cotton cotyledons dipped, whitefly adults introduced. The series is classed as in vivo. Particulars: 72 h, whitefly adults on dipped cotton cotyledons, assessed 3 days after treatment, read-out: mortality compared to untreated controls. How it is done:
as §2
The active compounds were formulated in 50:50 acetone:water and 100 ppm Kinetica™ surfactant.
Selected cotton plants were grown to the cotyledon state (one plant per pot). The cotyledons were dipped into the test solution to provide complete coverage of the foliage and placed in a well-vented area to dry. Each pot with treated seedling was placed in a plastic cup and 10 to 12 whitefly adults (approximately 3-5 day old) were introduced. The insects were colleted using an aspirator and an 0.6 cm, non-toxic TygonÒ tubing (R-3603) connected to a barrier pipette tip. The tip, containing the collected insects, was then gently inserted into the soil containing the treated plant, allowing insects to crawl out of the tip to reach the foliage for feeding. The cups were covered with a reusable screened lid (150 micron mesh polyester screen PeCap from Tetko Inc). Test plants were maintained in the holding room at about 25° C. and 20-40% relative humidity for 3 days avoiding direct exposure to the fluorescent light (24 hour photoperiod) to prevent trapping of heat inside the cup. Mortality was assessed 3 days after treatment of the plants.

Series [5] relates to Vetch Aphid (Megoura viciae). Kind of series: Vetch aphid (Megoura viciae) test, sprayed bean leaf disks in microtiterplates. The series is classed as in vivo. Particulars: foliar, 144 h, bean leaf disks sprayed with 2.5 μl, 6 days, read-out: mortality compared to untreated controls. How it is done:
The active compounds were formulated in 1:3 DMSO:water. Bean leaf disks were placed into microtiterplates filled with 0.8% agar-agar and 2.5 ppm OPUS™. The leaf disks were sprayed with 2.5 μl of the test solution and 5 to 8 adult aphids were placed into the microtiterplates which were then closed and kept at 22-24° C. and 35-45% under fluorescent light for 6 days. Mortality was assessed on the basis of vital, reproduced aphids. Tests were replicated 2 times.

In the case of `OCCNC(=S)NC1(c2ccccc2)CCc2ccccc21` (stereo not drawn) [Compound example 4], the melting point (commonly the temperature of the solid-liquid transition) lay in the range of 67 to 69 °C.

Consider `CC(=O)OCCNC(=S)NC1c2cccc(F)c2CC1(C)C` (stereo not drawn) [Compound example 5], for which the mortality at 300 ppm in series [1], in series [2], in series [3] and in series [4] was at least 75% in each case. In addition, the mortality (as a rule, the percentage killed) at 2500 ppm in series [5] is at least 75%.

With `CC(=O)OCCNC(=S)NC1CC(C)c2c(F)cccc21` (stereo not drawn) [Compound example 7], the mortality at 300 ppm in series [1], in series [2] and in series [4] was at least 75% each time. Moreover, the mortality at 2500 ppm in series [5] was at least 75%.

Turning to `CC1Cc2c(F)cccc2C1NC(=S)NCCO` (stereo not drawn) [Compound example 8], the mortality at 300 ppm in series [1], in series [2] and in series [3] was at least 75% each time. In addition, the mortality at 2500 ppm in series [5] is at least 75%.

On to `OCCNC(=S)NC1CSc2c(F)cccc21` (stereo not drawn) [Compound example 2, 1-(7-Fluoro-2,3-dihydro-benzo[b]thiophen-3-yl)-3-(2-hydroxy-ethyl)-thiourea], for which the mortality at 300 ppm in series [1], in series [2] and in series [3] was at least 75% each time. Besides, the mortality at 2500 ppm in series [5] was at least 75%.

As to `OCCNC(=S)NC1COc2ccc(F)cc21` (stereo not drawn) [Compound example 1, 1-(5-Fluoro-2,3-dihydro-benzofuran-3-yl)-3-(2-hydroxy-ethyl)-thiourea], the mortality at 300 ppm in series [1], in series [2] and in series [3] was at least 75% in each case. Besides, the mortality at 2500 ppm in series [5] was at least 75%.

With `CC1(C)Cc2c(F)cccc2C1NC(=S)NCCO` (stereo not drawn) [Compound example 6], the mortality at 300 ppm in series [1], in series [2] and in series [3] was at least 75% throughout. Moreover, the mortality at 2500 ppm in series [5] is at least 75%.

Turning to `CC(=O)OCCNC(=S)NC1CSc2c(F)cccc21` (stereo not drawn) [Compound example 3, Acetic acid 2-[3-(7-fluoro-2,3-dihydro-benzo[b]thiophen-3-yl)thioureido]-ethyl ester], the mortality at 300 ppm in series [2], in series [3] and in series [4] was at least 75% each time. For the same molecule, in series [5], the mortality at 2500 ppm was at least 75%.
